Experimental data: patent US11339203B2, “Antitumor peptide and use thereof” (TOAGOSEI CO., LTD., priority 2018, dated 2022)
Like-named read-outs stand apart in the source and are kept apart here. Where no end group is shown, it is not given here.

Legend:
[1] = tested on: human kidney cancer cell line (CAKI2); assay type: cell-based; settings: for Cell Viability (%): human, 48 h
Protocol: The antitumor activity of each sample peptide synthesized in above-mentioned Test Example 1 was evaluated targeted in human-derived cultured tumor cells. More specifically, a human kidney cancer cell line (CAKI2) that is currently commercially available was used for the test tumor cells. CAKI2 cells were cultured and adjusted to cell count of about 5×10^3 cells per single well of 96-well plate. The amount of medium at this time was made to be 100 μL per well. Next, the 96-well plate was arranged in a CO2 incubator and incubated for about 1 day (21 hours to 24 hours) under conditions of 37° C. and 5% CO2. Subsequently, peptide-containing test media were respectively prepared for each concentration so that the concentration of each sample peptide targeted for evaluation was 12.5 μM and 25 μM followed by supplying to the wells in which the cells targeted for evaluation were cultured (namely, the wells following the above-mentioned incubation) so that the amount of media was 90 μL per well. The 96-well plate was then returned to CO2 incubator followed by incubating for 48 hours under conditions of 37° C. and 5% CO2. The number of wells (n) at each concentration in each peptide addition test group was set to 3. Thus, the values of the results indicated in the following table are the average values of the results respectively obtained for 3 test wells. Cell viability (%) was determined in the manner described below. Following completion of incubation for 48 hours as described above, the medium in each well was replaced with 100 μL of fresh medium not containing peptide followed by further adding a reagent for measuring cell proliferation in the form of “Cell Counting Kit-8” (Dojindo Laboratories) containing “water-soluble tetrazolium salt (WST-8)” as a coloring reagent at 10 μL per well. Subsequently, the 96-well plate was again returned to CO2 incubator and incubated for 1.5 hours to 2 hours under conditions of 37° C. and 5% CO2. Following completion of incubation, cell viability (%) was evaluated using a colorimetric method consisting of recovering the cell culture liquid containing the above-mentioned reagent together with measuring absorbance at wavelength of 450 nm based on reduction of tetrazolium salt (value corrected for absorbance at a wavelength of 650 nm: A450 to A650). More specifically, the cell viability (%) of each test cell line was calculated from the measured absorbance as a relative value based on cell viability of 100% for the measured value (measured absorbance) of the comparison test group that underwent incubation for 48 hours as described above in only medium not containing peptide. McCoy's 5A medium (Gibco) containing 2 mM L-glutamine, 3,000 mg/L of glucose, 100 units/mL of penicillin, 100 μg/mL of streptomycin and 10% fetal bovine serum (FBS).

[2] = tested on: human melanoma cell line (A2058); assay type: cell-based; settings: 48 h
Protocol: CAKI2 cells were cultured and adjusted to cell count of about 5×10^3 cells per single well of 96-well plate. The amount of medium at this time was made to be 100 μL per well. Next, the 96-well plate was arranged in a CO2 incubator and incubated for about 1 day (21 hours to 24 hours) under conditions of 37° C. and 5% CO2. […] Cell viability (%) was determined in the manner described below. […] Following completion of incubation, cell viability (%) was evaluated using a colorimetric method consisting of recovering the cell culture liquid containing the above-mentioned reagent together with measuring absorbance at wavelength of 450 nm based on reduction of tetrazolium salt (value corrected for absorbance at a wavelength of 650 nm: A450 to A650). More specifically, the cell viability (%) of each test cell line was calculated from the measured absorbance as a relative value based on cell viability of 100% for the measured value (measured absorbance) of the comparison test group that underwent incubation for 48 hours as described above in only medium not containing peptide. Antitumor activity was evaluated for Sample 2 in above-mentioned Test Example 1 targeted at multiple types of human-derived cultured tumor cells. […]

Substance: FIGNLALSDLLAGVAYTANLLLKKRTLRKNDRKKR-NH2 [Sample 2]
- antitumor activity (tumor cell proliferation inhibitory activity) ([1]; CAKI2 cells, result in words, among Samples 1 to 7): superior antitumor activity
- Cell Viability (%) ([1]; 12.5 μM): 9.2%
- Cell Viability (%) ([1]; 25 μM): 0.4%
- Cell Viability (%) ([2]; 12.5 μM): 6.5%
- Cell Viability (%) ([2]; 25 μM): 0.2%
